EC50 data for 15 molecules are collected here from ChEMBL document CHEMBL1150635, “Cytotoxic pyrrolo- and furanoterpenoids from the sponge sarcotragus species” (2002).

Holding throughout (assay type): functional
Conditions in all cases: read-out: ED50 (the source's name)

In experiment [1] the test system is SK-MEL-2. Put plainly: Cytotoxicity against human SK-MEL-2 cells.
Experiment [2] deals with XF498. Put plainly: Cytotoxicity against human XF498 cells.
Experiment [3] has as its system HCT-15. Nature of the experiment: Cytotoxicity against human HCT15 cells.
Experiment [4] relates to A549. Put plainly: Cytotoxicity against human A549 cells.
Experiment [5] deals with SK-OV-3. Nature of the experiment: Cytotoxicity against human SKOV3 cells.

In brackets after ≈: the same amount, converted by molar mass. A value given as a limit tells only on which side of the number the result lay.

On to `COC(=O)C(O)C/C(C)=C\CC[C@H](C)/C=C/C=C(\C)CCCc1ccoc1` (stereo not given in full) [SARCOTIN J], for which the EC50 in experiment [1] was determined as 7.8 µg/mL (≈ 20.8 µM); in experiment [2], 24.3 µg/mL (≈ 64.9 µM); in experiment [3], 8.7 µg/mL (≈ 23.2 µM); in experiment [4], 18.1 µg/mL (≈ 48.3 µM); in experiment [5], 10 µg/mL (≈ 26.7 µM).

Turning to `COc1cccc2c1C(=O)c1c(O)c3c(c(O)c1C2=O)C[C@@](O)(C(=O)CO)C[C@@H]3O[C@H]1C[C@H](N)[C@H](O)[C@H](C)O1` [DOXORUBICIN], the EC50 was determined as 0.02 µg/mL (≈ 0.0368 µM) in experiment [1]; 0.13 µg/mL (≈ 0.239 µM) in experiment [2]; 0.06 µg/mL (≈ 0.11 µM) in experiment [3]; 0.02 µg/mL (≈ 0.0368 µM) in experiment [4]; 0.16 µg/mL (≈ 0.294 µM) in experiment [5].

Consider `CO[C@]1(Cc2ccoc2)C=C(CCC/C(C)=C\CC[C@@H](C)/C=C2\OC(=O)C(C)=C2O)C(=O)O1` [SARCOTIN H], for which the EC50 in experiment [1] turned out to be 5.9 µg/mL (≈ 12.9 µM); in experiment [2], 6.3 µg/mL (≈ 13.8 µM); in experiment [3], 6.1 µg/mL (≈ 13.4 µM); in experiment [4] it was 6.7 µg/mL (≈ 14.7 µM); in experiment [5], 6.8 µg/mL (≈ 14.9 µM).

Consider `CC1=C(O)[C@H](C/C(C)=C\CC[C@H](C)/C=C/C=C(\C)CCCC2=CC(=O)N(CCC(C)C)C2)OC1=O` [SARCOTRINE D], for which the EC50 is 13.2 µg/mL (≈ 27.3 µM) in experiment [1]; > 30 µg/mL in experiment [2]; 21.6 µg/mL (≈ 44.7 µM) in experiment [3]; > 30 µg/mL in experiment [4]; 25.9 µg/mL (≈ 53.5 µM) in experiment [5].

For the molecule `C/C(=C/CC[C@@H](C)/C=C/C=C(\C)CCCc1ccoc1)CC(O)C(=O)[O-].[Na+]` (stereo not given in full) [SARCOTIN I], the EC50 in experiment [1] worked out at 25.7 µg/mL; in experiment [2] it was 25.9 µg/mL; in experiment [3] it was 23.7 µg/mL; in experiment [4], 24.8 µg/mL; in experiment [5], 23.3 µg/mL.

Turning to `CC1=C(O)[C@H](C/C(C)=C\CC[C@H](C)/C=C/C=C(\C)CCCC2=CCN(CCc3ccccc3)C2=O)OC1=O` [SARCOTRINE B], the EC50 stood at 4.3 µg/mL (≈ 8.31 µM) in experiment [1]; 5.2 µg/mL (≈ 10 µM) in experiment [2]; 4.9 µg/mL (≈ 9.46 µM) in experiment [3]; 6.3 µg/mL (≈ 12.2 µM) in experiment [4]; 6.7 µg/mL (≈ 12.9 µM) in experiment [5].

In the case of `CC1=C(O)[C@@H](C/C(C)=C\CC[C@H](C)/C=C/C=C(\C)CCCc2ccoc2)OC1=O` [EPI-SARCOTIN A], the EC50 in experiment [1] is 5.6 µg/mL (≈ 14.1 µM); in experiment [2], 9.8 µg/mL (≈ 24.6 µM); in experiment [3], 6.5 µg/mL (≈ 16.3 µM); in experiment [4] it was 12.3 µg/mL (≈ 30.9 µM); in experiment [5] it was 9.6 µg/mL (≈ 24.1 µM).

For `COC1C=C(CCC/C(C)=C/C=C/[C@@H](C)CC/C=C(/C)C[C@@H]2OC(=O)C(C)=C2O)C(=O)O1` (stereo not given in full) [SARCOTIN F], the EC50 in experiment [1] came to 7.6 µg/mL (≈ 17.1 µM); in experiment [2] it was 20.1 µg/mL (≈ 45.2 µM); in experiment [3], 10.5 µg/mL (≈ 23.6 µM); in experiment [4], 24.1 µg/mL (≈ 54.2 µM); in experiment [5], 15.2 µg/mL (≈ 34.2 µM).

On to `COC(/C=C/[C@@H](C)CC/C=C(/C)C[C@@H]1OC(=O)C(C)=C1O)C(C)(O)CCCc1ccoc1` (stereo not given in full) [SARCOTIN M], for which the EC50 in experiment [1] was determined as 9.9 µg/mL (≈ 22.2 µM); in experiment [2], 11.3 µg/mL (≈ 25.3 µM); in experiment [3] it was 10.1 µg/mL (≈ 22.6 µM); in experiment [4] it was 9 µg/mL (≈ 20.2 µM); in experiment [5], 8.4 µg/mL (≈ 18.8 µM).

With `CCC(C)CN1CC=C(CCC/C(C)=C/C=C/[C@@H](C)CC/C=C(/C)C[C@H]2OC(=O)C(C)=C2O)C1=O` (stereo not given in full), the EC50 was 15.9 µg/mL (≈ 32.9 µM) in experiment [1]; 25.2 µg/mL (≈ 52.1 µM) in experiment [2]; 22.3 µg/mL (≈ 46.1 µM) in experiment [3]; 27.1 µg/mL (≈ 56 µM) in experiment [4]; 26.8 µg/mL (≈ 55.4 µM) in experiment [5].

With `CC1=C(O)[C@@H](C/C(C)=C\CC[C@H](C)/C=C/C=C(\C)CCCC2=CCN(CCc3ccccc3)C2=O)OC1=O` [EPI-SARCOTRINE B], the EC50 in experiment [1] is 4.8 µg/mL (≈ 9.27 µM); in experiment [2], 10.5 µg/mL (≈ 20.3 µM); in experiment [3], 5.4 µg/mL (≈ 10.4 µM); in experiment [4], 16.8 µg/mL (≈ 32.5 µM); in experiment [5] it was 13.1 µg/mL (≈ 25.3 µM).

Regarding `CCC(C)CN1CC=C(CCC/C(C)=C/C=C/[C@@H](C)CC/C=C(/C)C[C@@H]2OC(=O)C(C)=C2O)C1=O` (stereo not given in full) [SARCOTRINE C], the EC50 was 3.8 µg/mL (≈ 7.86 µM) in experiment [1]; 5.4 µg/mL (≈ 11.2 µM) in experiment [2]; 5.3 µg/mL (≈ 11 µM) in experiment [3]; 19 µg/mL (≈ 39.3 µM) in experiment [4]; 6.9 µg/mL (≈ 14.3 µM) in experiment [5].

On to `CO[C@]1(Cc2ccoc2)C=C(CC/C=C(\C)CCC[C@@H](C)/C=C2\OC(=O)C(C)=C2O)C(=O)O1` [SARCOTIN G], for which the EC50 in experiment [1] worked out at 5.1 µg/mL (≈ 11.2 µM); in experiment [2] it was 7.6 µg/mL (≈ 16.6 µM); in experiment [3] it was 7.3 µg/mL (≈ 16 µM); in experiment [4] it was 9.1 µg/mL (≈ 19.9 µM); in experiment [5] it was 10 µg/mL (≈ 21.9 µM).

For the molecule `CC1=C(O)[C@@H](C/C(C)=C\CC[C@H](C)/C=C/C=C(\C)CCCC2=CCN(CCC(C)C)C2=O)OC1=O` [EPI-SARCOTRINE A], the EC50 in experiment [1] is 3.4 µg/mL (≈ 7.03 µM); in experiment [2], 3.9 µg/mL (≈ 8.06 µM); in experiment [3], 3.8 µg/mL (≈ 7.86 µM); in experiment [4], 4.3 µg/mL (≈ 8.89 µM); in experiment [5] it was 4 µg/mL (≈ 8.27 µM).

In the case of `CC1=C(O)[C@H](C/C(C)=C\CC[C@H](C)/C=C/C=C(\C)CCCC2=CCN(CCC(C)C)C2=O)OC1=O` [SARCOTRINE A], the EC50 in experiment [1] was 4.1 µg/mL (≈ 8.48 µM); in experiment [2], 5.5 µg/mL (≈ 11.4 µM); in experiment [3], 5 µg/mL (≈ 10.3 µM); in experiment [4] it was 15.1 µg/mL (≈ 31.2 µM); in experiment [5], 5.3 µg/mL (≈ 11 µM).
